Reference: patent US8017611B2, “Pyridine and pyrazine derivatives -083” (AstraZeneca AB, priority 2007, dated 2011)

Biological target: T1, recombinant Axl tyrosine kinase (Homo sapiens, UniProt P30530)
T1 construct: encompassing amino acids 473 to 894 of Axl; GST (N); made in house; host or cells: SF126 insect cells
T1 sequence (P30530 473-894): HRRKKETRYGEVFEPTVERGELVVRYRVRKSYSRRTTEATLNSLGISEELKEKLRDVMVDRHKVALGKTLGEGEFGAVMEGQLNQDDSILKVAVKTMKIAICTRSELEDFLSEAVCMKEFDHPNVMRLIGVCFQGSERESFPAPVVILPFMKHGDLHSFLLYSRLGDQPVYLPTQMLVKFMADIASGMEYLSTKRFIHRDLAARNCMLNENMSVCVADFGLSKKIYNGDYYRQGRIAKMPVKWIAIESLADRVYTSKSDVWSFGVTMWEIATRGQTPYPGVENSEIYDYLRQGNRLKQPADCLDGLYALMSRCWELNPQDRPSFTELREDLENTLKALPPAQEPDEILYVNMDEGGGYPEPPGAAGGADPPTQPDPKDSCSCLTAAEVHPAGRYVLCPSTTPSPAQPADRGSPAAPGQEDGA
Test: In vitro Axl kinase assay (AlphaScreen), Test (a)
Format: biochemical
Settings: 1 μM; mean calculated from a larger number of replicates than the first value

| Compound | % Axl tyrosine kinase inhibition at 1 μM concentration (second value, †) [%] |
| --- | --- |
| Nc1ncc(-c2cccc(N3CCNCC3)c2)nc1-c1nc2ccccc2o1 [Example 20.2] | 99.3 |

Same assay, conditions: Test (a); read-out: IC50 versus Axl tyrosine kinase

| Compound | IC50 [nM] |
| --- | --- |
| COCc1nn(C2CCN(C(=O)CO)CC2)cc1-c1cnc(N)c(-c2nc3ccccc3o2)c1 [Example 66, 1-[4-[4-[6-amino-5-(1,3-benzoxazol-2-yl)-3-pyridyl]-3-(methoxymethyl)pyrazol-1-yl]-1-piperidyl]-2-hydroxy-ethanone] | ~0.6 |

Same assay, conditions: test compound at 1 μM; first value quoted

| Compound | % Axl tyrosine kinase inhibition at 1 μM concentration [%] |
| --- | --- |
| CCN(CC)CCCOc1ccc(-c2cnc(N)c(-c3nc4ncccc4o3)c2)cc1 [Example 43B.20] | 98.9 |
| CCN1CCCC1CNC(=O)c1ccc(-c2cnc(N)c(-c3nc4cccnc4o3)c2)cc1 (stereo not drawn) [Example 45A.72] | 99.6 |
| CC(=O)N1CCC(n2cc(-c3cnc(N)c(-c4nc5ccccc5o4)c3)cn2)CC1 [Example 34.1] | 99.8 |
| Nc1ncc(-c2ccc(OCCOCCN3CCOCC3)cc2)cc1-c1nc2ncccc2o1 [Example 43B.22] | 97.7 |
| Nc1ncc(-c2ccc(OCCC3CCNCC3)cc2)cc1-c1nc2ncccc2o1 [Example 43B.35] | 95.9 |
| CN1CCC[C@H]1COc1ccc(-c2cnc(N)c(-c3nc4ncccc4o3)c2)cc1 [Example 43B.5] | 99.4 |
| N#Cc1cccc2oc(-c3cc(-c4cnn(C5CCNCC5)c4)cnc3N)nc12 [Example 38A.3] | 99.9 |
| CCN(CC)CCOc1ccc(-c2cnc(N)c(-c3nc4ncccc4o3)c2)cc1 [Example 43B.3] | 99.6 |
| N#CCc1ccc(-c2cnc(N)c(-c3nc4cccnc4o3)c2)cc1 [Example 9A.16] | 97.7 |
| COc1cc(-c2cnc(N)c(-c3nc4ncccc4o3)c2)ccc1OC1CC2CCC(C1)N2C (stereo not drawn) [Example 43C.19] | 99.7 |
| Nc1ncc(-c2cccc(N3CCCCC3)c2)cc1-c1nc2ccccc2o1 [Example 2.46] | 46.4 |
| Nc1ncc(-c2cccc(N3CCNCC3)c2)nc1-c1nc2ccccc2o1 [Example 20.2] | 99.6 |
| Nc1ncc(-c2ccc(C(=O)N3CCC(O)CC3)cc2)cc1-c1nc2ccncc2o1 [Example 11A.2] | 97.5 |
| Nc1ncc(-c2ccc(C(=O)N3CCN4CCCC4C3)cc2)cc1-c1nc2cccnc2o1 (stereo not drawn) [Example 45A.74] | 99.9 |
| COCc1nn(C2CCNCC2)cc1-c1cnc(N)c(-c2nc3c(F)cccc3o2)c1 [Example 62.7] | 100.0 |
| Nc1ncc(-c2ccc(OCC#CCN3CCS(=O)(=O)CC3)cc2)cc1-c1nc2ncccc2o1 [Example 43B.23] | 95.3 |
| COc1cc(-c2cnc(N)c(-c3nc4ncccc4o3)c2)ccc1OC1CCCN(C)C1 (stereo not drawn) [Example 43C.9] | 99.9 |

Same assay, conditions: test compound at 1 μM; first value quoted; read-out: % Axl tyrosine kinase inhibition at 1 μM concentration

| Compound | inhibition at 1 µM [%] |
| --- | --- |
| CN1CCC(n2cc(-c3cnc(N)c(-c4nc5ccccc5o4)n3)cn2)CC1 [Example 18, 3-(1,3-benzoxazol-2-yl)-5-[1-(1-methyl-4-piperidyl)pyrazol-4-yl]pyrazin-2-amine] | 99.3 |
| CN1CCN(c2ncc(-c3cnc(N)c(-c4nc5ccccc5o4)c3)s2)CC1 [Example 25.5, 3-(1,3-benzoxazol-2-yl)-5-[2-(4-methylpiperazin-1-yl)thiazol-5-yl]pyridin-2-amine] | 82.9 |
| COCc1nn(C2CCN(C(=O)CO)CC2)cc1-c1cnc(N)c(-c2nc3ccccc3o2)c1 [Example 66, 1-[4-[4-[6-amino-5-(1,3-benzoxazol-2-yl)-3-pyridyl]-3-(methoxymethyl)pyrazol-1-yl]-1-piperidyl]-2-hydroxy-ethanone] | 100 |
| CNCc1nn(C2CCN(C(C)=O)CC2)cc1-c1cnc(N)c(-c2nc3ccccc3o2)c1 [Example 63, 1-[4-[4-[6-amino-5-(1,3-benzoxazol-2-yl)-3-pyridyl]-3-(methylaminomethyl)pyrazol-1-yl]-1-piperidyl]ethanone] | 98.4 |
| COc1cc(-c2cnc(N)c(-c3nc4ncccc4o3)c2)ccc1OCCN1CCOCC1 [Example 43C.2, 5-[3-methoxy-4-(2-morpholinoethoxy)phenyl]-3-oxazolo[4,5-b]pyridin-2-yl-pyridin-2-amine] | 97.1 |
